{"source": "ChEMBL document CHEMBL1201862", "about": "“PubChem BioAssay data set” (2004)", "key": {"[1]": {"molecular_target": "DNA dC->dU-editing enzyme APOBEC-3G (Homo sapiens, UniProt Q9HC16)", "sequence (Q9HC16 whole entry)": "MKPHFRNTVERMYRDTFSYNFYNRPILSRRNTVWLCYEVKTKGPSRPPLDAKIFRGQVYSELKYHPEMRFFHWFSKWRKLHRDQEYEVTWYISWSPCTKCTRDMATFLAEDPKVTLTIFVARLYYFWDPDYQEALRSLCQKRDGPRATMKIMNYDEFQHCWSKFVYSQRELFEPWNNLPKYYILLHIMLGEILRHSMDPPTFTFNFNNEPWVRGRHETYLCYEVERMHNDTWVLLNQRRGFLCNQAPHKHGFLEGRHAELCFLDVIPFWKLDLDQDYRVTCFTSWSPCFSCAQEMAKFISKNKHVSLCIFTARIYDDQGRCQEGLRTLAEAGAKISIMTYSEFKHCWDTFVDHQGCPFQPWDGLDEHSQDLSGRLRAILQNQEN", "assay": "Dose Response confirmation of small molecule APOBEC3G DNA Deaminase Inhibitors via a fluorescence-based single-stranded DNA deaminase assay. [Related pubchem assays (depositor defined):AID493012, AID493028]", "assay_type": "functional"}, "[2]": {"molecular_target": "Large T antigen (Simian virus 40, UniProt P03070)", "sequence (P03070 whole entry)": "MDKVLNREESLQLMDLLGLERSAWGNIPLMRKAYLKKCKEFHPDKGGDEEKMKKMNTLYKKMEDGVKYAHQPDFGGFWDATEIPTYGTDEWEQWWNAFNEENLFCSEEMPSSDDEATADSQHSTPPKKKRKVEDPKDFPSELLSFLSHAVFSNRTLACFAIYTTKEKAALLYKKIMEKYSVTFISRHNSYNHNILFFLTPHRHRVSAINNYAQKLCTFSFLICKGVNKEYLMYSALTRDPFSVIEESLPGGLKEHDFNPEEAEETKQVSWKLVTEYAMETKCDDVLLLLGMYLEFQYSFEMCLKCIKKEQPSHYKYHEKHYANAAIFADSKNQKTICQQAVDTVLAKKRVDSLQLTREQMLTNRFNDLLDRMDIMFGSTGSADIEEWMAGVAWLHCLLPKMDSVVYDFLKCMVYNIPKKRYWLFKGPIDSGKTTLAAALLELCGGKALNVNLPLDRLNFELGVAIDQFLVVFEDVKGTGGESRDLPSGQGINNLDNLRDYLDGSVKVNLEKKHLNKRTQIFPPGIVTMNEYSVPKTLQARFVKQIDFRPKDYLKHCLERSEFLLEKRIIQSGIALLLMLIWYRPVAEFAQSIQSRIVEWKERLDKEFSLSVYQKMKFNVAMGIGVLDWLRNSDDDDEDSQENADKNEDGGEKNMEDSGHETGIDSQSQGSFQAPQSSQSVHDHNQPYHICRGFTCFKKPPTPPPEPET", "assay_type": "functional, Betapolyomavirus macacae"}, "[3]": {"molecular_target": "Troponin, cardiac muscle (Homo sapiens, UniProt P19429+P45379+P63316)", "assay": "Fluorescence-based biochemical high throughput dose response assay for activators of the calcium sensitivity of cardiac Regulated Thin Filaments (RTF). [Related pubchem assays (depositor defined):AID493008, AID493018, AID504382, AID504383]", "assay_type": "protein-complex assay"}, "[4]": {"molecular_target": "DNA dC->dU-editing enzyme APOBEC-3A (Homo sapiens, UniProt P31941)", "sequence (P31941 whole entry)": "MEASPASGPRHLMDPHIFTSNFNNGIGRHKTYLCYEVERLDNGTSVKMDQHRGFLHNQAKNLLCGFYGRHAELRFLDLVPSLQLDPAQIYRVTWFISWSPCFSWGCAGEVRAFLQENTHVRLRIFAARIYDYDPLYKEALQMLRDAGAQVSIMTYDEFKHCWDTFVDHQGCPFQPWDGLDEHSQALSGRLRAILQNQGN", "assay": "A3A deaminase inhibition for selectivity – biochemical, dose response (AID 504722)", "assay_type": "functional"}, "[5]": {"molecular_target": "G-protein coupled receptor 35 (Homo sapiens, UniProt Q9HC97)", "sequence (Q9HC97 whole entry)": "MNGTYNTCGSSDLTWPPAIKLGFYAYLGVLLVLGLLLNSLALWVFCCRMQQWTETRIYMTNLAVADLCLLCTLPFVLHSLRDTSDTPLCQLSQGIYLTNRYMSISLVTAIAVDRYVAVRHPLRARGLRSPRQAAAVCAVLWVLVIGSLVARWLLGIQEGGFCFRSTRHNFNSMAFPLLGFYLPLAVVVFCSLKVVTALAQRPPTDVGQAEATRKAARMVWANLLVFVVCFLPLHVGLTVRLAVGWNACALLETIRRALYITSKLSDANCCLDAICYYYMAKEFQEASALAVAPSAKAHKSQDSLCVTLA", "assay": "SAR analysis of Antagonists of the GPR35 Receptor using an Image-Based Assay - Set 5. [Related pubchem assays (depositor defined):AID2058, AID2079]", "assay_type": "functional"}, "[6]": {"molecular_target": "G-protein coupled receptor 55 (Homo sapiens, UniProt Q9Y2T6)", "sequence (Q9Y2T6 whole entry)": "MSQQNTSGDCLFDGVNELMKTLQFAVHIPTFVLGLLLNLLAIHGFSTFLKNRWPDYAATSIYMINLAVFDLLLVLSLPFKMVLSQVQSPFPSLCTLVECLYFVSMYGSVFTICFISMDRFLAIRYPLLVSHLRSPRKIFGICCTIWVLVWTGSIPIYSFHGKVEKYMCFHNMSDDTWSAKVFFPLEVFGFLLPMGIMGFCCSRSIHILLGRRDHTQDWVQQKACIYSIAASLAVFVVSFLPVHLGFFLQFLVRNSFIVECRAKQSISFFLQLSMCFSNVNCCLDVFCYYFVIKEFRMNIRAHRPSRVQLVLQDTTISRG", "assay": "SAR Analysis of Selective Antagonists of GPR55 using an Image-Based Assay - Set 3. [Related pubchem assays (depositor defined):AID2058, AID2079]", "assay_type": "functional"}, "[7]": {"molecular_target": "T1, Dual specificity protein phosphatase 3 (Homo sapiens, UniProt P51452)", "T1 sequence (P51452 whole entry)": "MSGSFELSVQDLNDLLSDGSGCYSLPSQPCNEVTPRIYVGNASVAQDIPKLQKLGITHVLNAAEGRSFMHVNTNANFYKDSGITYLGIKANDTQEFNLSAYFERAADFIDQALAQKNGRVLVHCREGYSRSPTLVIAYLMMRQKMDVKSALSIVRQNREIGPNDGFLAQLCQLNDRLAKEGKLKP", "assay": "SAR VHR1 absorbance Assay for In Vitro dose response studies. [Related pubchem assays (depositor defined):AID1654, AID1661, AID1878, AID1992, AID2004]"}, "[8]": {"molecular_target": "T1, Dual specificity protein phosphatase 3", "assay": "SAR VHR1 Fluorescent Assay for In Vitro dose response studies. [Related pubchem assays (depositor defined):AID1654, AID1661, AID1878, AID1992, AID2004, AID2070, AID2085]", "assay_type": "functional"}, "[9]": {"molecular_target": "T2, Tyrosine-protein phosphatase non-receptor type 7 (Homo sapiens, UniProt P35236)", "T2 sequence (P35236 whole entry)": "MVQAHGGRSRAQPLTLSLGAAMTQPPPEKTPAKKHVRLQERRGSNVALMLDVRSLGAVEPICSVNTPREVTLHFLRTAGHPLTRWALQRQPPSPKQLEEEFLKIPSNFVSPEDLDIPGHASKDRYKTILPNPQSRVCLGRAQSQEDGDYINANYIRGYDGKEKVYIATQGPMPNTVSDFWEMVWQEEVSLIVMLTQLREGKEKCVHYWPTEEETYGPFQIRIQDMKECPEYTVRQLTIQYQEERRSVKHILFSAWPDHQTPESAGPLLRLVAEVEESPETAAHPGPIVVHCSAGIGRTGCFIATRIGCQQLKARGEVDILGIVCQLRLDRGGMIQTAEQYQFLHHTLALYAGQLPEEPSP", "assay": "redox-active compounds inhibiting HePTP phosphatase – biochemical, fluorescence, mechanism study (AID 2068)", "assay_type": "functional"}, "[10]": {"molecular_target": "T3, Dual specificity protein phosphatase 6 (Rattus norvegicus, UniProt Q64346)", "T3 sequence (Q64346 whole entry)": "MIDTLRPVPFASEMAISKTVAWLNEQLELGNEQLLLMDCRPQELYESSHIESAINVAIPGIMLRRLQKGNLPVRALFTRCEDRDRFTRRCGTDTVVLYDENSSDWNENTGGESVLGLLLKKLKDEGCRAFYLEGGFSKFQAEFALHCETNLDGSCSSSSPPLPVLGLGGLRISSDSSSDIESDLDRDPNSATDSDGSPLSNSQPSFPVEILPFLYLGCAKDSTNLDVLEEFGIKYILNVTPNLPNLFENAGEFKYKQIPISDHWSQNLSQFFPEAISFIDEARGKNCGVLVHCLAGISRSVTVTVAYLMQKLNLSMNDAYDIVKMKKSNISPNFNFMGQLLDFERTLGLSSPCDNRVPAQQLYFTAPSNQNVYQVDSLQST", "assay_type": "functional"}}, "note": "The source made the active and inactive calls. For most assays here, no stated cut-off is given here; in the data, actives have a measured IC50 and inactives only a lower limit.", "data": [{"smiles": "Cc1cccc(/C=N/n2c(S)nnc2-c2ccncc2)c1", "values": [{"measurement": "IC50", "setting": "[1]", "value": "2.62 µM (active)"}, {"measurement": "IC50", "setting": "[2]", "value": "43.7 µM (active)"}, {"measurement": "EC50", "setting": "[3]", "value": "> 71.5 µM (inactive)"}, {"measurement": "IC50", "setting": "[4]", "value": "> 100 µM (inactive)"}]}, {"smiles": "COc1ccc(-c2n[nH]cc2/C=N/NC(=S)NC(C)(C)C)cc1", "values": [{"measurement": "IC50", "setting": "[5]", "value": "> 32 µM (inactive)"}, {"measurement": "IC50", "setting": "[6]", "value": "16.4 µM (inactive)"}]}, {"smiles": "S=C(c1cn(CCOc2ccccc2)c2ccccc12)N1CCOCC1", "values": [{"measurement": "IC50", "setting": "[7]", "value": "> 100 µM (inactive)"}, {"measurement": "IC50", "setting": "[8]", "value": "> 99 µM (inactive)"}, {"measurement": "IC50", "setting": "[9]", "value": "2.35 µM (active)"}, {"measurement": "IC50", "setting": "[10]", "value": "> 99 µM (inactive)"}]}]}
